Assay results taken from patent US7893299B2, “Interleukin-1 and tumor necrosis factor-αmodulators; syntheses of such modulators and methods of using such modulators” (Nereus Pharmaceuticals, Inc., priority 2005, dated 2011).
Read-outs that look alike come from different tables or passages of the source.

Experiments:
[1] = test system: U266 (MM); assay: 48 hr cytotoxicity, U266; assay type: cell-based, human
Procedure: B16-F10 (ATCC; CRL-6475), DU 145 (ATCC; HTB-81), HEK293 (ATCC; CRL-1573), HT-29 (ATCC; HTB-38), LoVo (ATCC; CCL-229), MDA-MB-231 (ATCC; HTB-26), MIA PaCa-2 (ATCC; CRL-1420), NCI-H292 (ATCC; CRL-1848), OVCAR-3 (ATCC, HTB-161), PANC-1 (ATCC; CRL-1469), PC-3 (ATCC; CRL-1435), RPMI 8226 (ATCC; CCL-155) and U266 (ATCC; TIB-196) are maintained in appropriate culture media. The cells are cultured in an incubator at 37° C. in 5% CO2 and 95% humidified air.
For cell growth inhibition assays, B16-F10, DU 145, HEK293, HT-29, LoVo, MDA-MB-231, MIA PaCa-2, NCI-H292, OVCAR-3, PANC-1, PC-3, RPMI 8226 and U266 cells are seeded at 1.25×10^3, 5×10^3, 1.5×10^4, 5×10^3, 5×10^3, 1×10^4, 2×10^3, 4×10^3, 1×10^4, 7.5×10^3, 5×10^3, 2×10^4, 2.5×10^4 cells/well respectively in 90 μl complete media into Corning 3904 black-walled, clear-bottom tissue culture plates. 20 mM stock solutions of compounds of Formula II, IIA, and IIB are prepared in 100% DMSO, aliquoted and stored at −80° C. Compounds of Formula II, IIA, and IIB are serially diluted and added in triplicate to the test wells resulting in final concentrations ranging from of 20 μM to 0.2 pM. […]
Following 48 hours of drug exposure, 10 μl of 0.2 mg/ml resazurin (obtained from Sigma-Aldrich Chemical Co.) in Mg^2+, Ca^2+ free phosphate buffered saline is added to each well and the plates are returned to the incubator for 3-6 hours. Since living cells metabolize Resazurin, the fluorescence of the reduction product of Resazurin is measured using a Fusion microplate fluorometer (Packard Bioscience) with λex=535 nm and λem=590 nm filters. […]
The cytotoxicity assays were performed by seeding individual cell lines at appropriate density in the 96 well flat-bottomed plates and allowed to attach for 24 hours at 37° C., 5% CO2 and 95% humidified air (RPMI 8226 and U266 cells were plated in 96 well plates on the day of compound addition). […] Cell viability was assessed 48 hours later by measuring the fluorescence of the reduction product of Resazurin by a Fusion microplate fluorometer (PerkinElmer) with λex=535 nm and λem=590 nm filters. […]

[2] = test system: NF-κB DNA binding activity; assay: NF-κB DNA binding activity, EMSA, RPMI 8226; assay type: cell-based; conditions: LPS
[3] = test system: IκBα phosphorylation; assay: phosphorylation of IκBα induced by Toll-like receptor ligands in RPMI 8226 cells; assay type: cell-based; conditions: 13 μM
Procedure: One ml/well of 2×10^6/ml RPMI 8226 cells (#CCL-155C, American Type Culture Collection) were seeded in 6-well plate in LGM-3 medium and cultured for overnight at 37° C., 5% CO2 and 95% humidified air. Formula (IIB-A1) was added to RPMI 8226 cells at the final concentration of 13 μM for 1 hr. DMSO was used as a control. Cells were then stimulated with 50 ng/ml LPS, 2 μg/ml Lipoteichoic acid (LTA) and CpG DNA for various length of time. At the end of each period of stimulation, cells were harvested by centrifugation and cell pellets were washed once in ice-cold 1× Dulbecco's Phosphate buffered Saline (DPBS). To prepare samples for SDS-PAGE, cells were lysed in RIPA buffer (50 mM Tris-HCl, pH7.4, 0.9% NaCl, 1% Triton X-100, 0.25% Na-deoxycholate, 1 mM EDTA, 2 mM Na3VO4 and 1× protease inhibitors cocktail) for 15 min on ice. Cell lysates were cleared by centrifugation at 14,000 rpm, 4° C. for 10 min. Protein concentrations of cell lysates were determined by BCA protein assay kit prior to SDS-PAGE. Equal amount of proteins from various cell lysates were resolved on 10% NuPage MES precast gels and transferred to nitrocellulose membranes according to the manufacturer's instructions. […]

Row | Compound | IC50 [1] | IC50 ([1]; Homo sapiens, U-266, 48 h) | NF-κB DNA binding activity [2] | phosphorylation of IκBα induced by Toll-like receptor ligands (LTA, CpG DNA) [3] | phosphorylation of IκBα induced by Toll-like receptor ligands (LTA, CpG DNA) ([3]; listed as formula (IIB-A1))
1 | C=CC(=O)C1(C)CCCC2(C)C3=CCC(C)(C=C)C[C@@H]3CC[C@H]12 (stereo in doubt) [NPI-1387, 1-[(1S,4aS,7R)-1,4a,7-Trimethyl-7-vinyl-1,2,3,4,4a,6,7,8,8a,9,10,10a-dodecahydro-1-phenanthrenyl]-2-propen-1-one] | 7 ± 1.9 µM | 8.7 ± 6.4 µM | inhibits the DNA binding activity of NF-κB in a dose-dependent manner | – | –
2 | C=C[C@@]1(C)CCC=C2[C@H]1CC[C@@H]1[C@](C)(C(=O)NC3CCCCC3)CCC[C@@]21C [Formula (IIB-A1), N-Cyclohexylamide Derivative of TTL] | – | – | – | inhibits the phosphorylation of IκBα induced by Toll-like receptor ligands | inhibits the phosphorylation of IκBα induced by LTA and CpG DNA
